Reference: EP3705574A1, “SPLIT LUCIFERASE, AND HIGHLY SENSITIVE VITAMIN D RECEPTOR LIGAND DETECTION METHOD USING SAME” (Public University Corporation Toyama Prefectural University, priority 2017, dated 2019)

What was measured:
[1] = biological target: T1, LucN-NHPMLMNLLKDN-(GGGGS)×3-LBD-LucC biosensor (split firefly luciferase, LXXLL sequence, hVDR LBD 121-427 aa) (Homo sapiens, UniProt P11473); experiment: Luciferase light emission in COS-7 cells expressing single molecular type biosensor; assay type: cell-based; conditions: 0-1000 nM added, relative light intensity after 90 minutes
T1 construct: expressed in transfected cells; host or cells: COS-7
T1 sequence (P11473 121-427): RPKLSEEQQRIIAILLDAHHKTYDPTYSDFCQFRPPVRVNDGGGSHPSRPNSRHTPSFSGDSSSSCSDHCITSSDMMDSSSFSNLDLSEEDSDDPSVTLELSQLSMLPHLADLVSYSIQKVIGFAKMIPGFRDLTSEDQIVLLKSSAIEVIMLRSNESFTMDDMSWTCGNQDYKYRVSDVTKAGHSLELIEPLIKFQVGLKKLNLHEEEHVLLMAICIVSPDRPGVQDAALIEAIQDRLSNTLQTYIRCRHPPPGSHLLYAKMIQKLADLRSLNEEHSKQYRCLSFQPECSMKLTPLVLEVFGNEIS

[2] = test system: double molecular type N29+N31 biosensor (6×His LBD(121-427 aa)-SmBiT + 6×His LgBiT-NHPMLMNLLKDN)
Experimental: Several of the obtained E.coli colony were selected, inoculated into 2 mL of LB liquid culture medium (containing 100 µg/mL of ampicillin), and shaking culture was performed at 37°C and 200 rpm for 12 hours. 2 mL of E.coli solution was succeeded in 500 mL of LB liquid culture medium (containing 100 µg/mL of ampicillin) and cultivated at 37°C to OD600=0.4, and then 1 mM isopropyl-1-thio-β-D-galactopyranoside [IPTG (NACALAI TESQUE, INC.) was added and cultivated at 15°C for 3 hours to express proteins. After cultivation, centrifugal separation was performed at 4°C, 5000×g for 10 minutes to collect bacterial cells. Bacterial bodies were suspended in the solution containing 25 mM Tris-HCl, pH 7.4, 10 mM DTT, and protease cocktails of inhibitor (NACALAI TESQUE, Inc.) and then ultrasonic crushing was performed in ice for 15 sec×7 times. Thereafter, centrifugal separation was performed at 4°C, 20,000×g for 30 minutes, and supernatant was collected to obtain biosensor protein solutions N29, N30, N31 and N32.
Thereafter, 10 µl of light emission substrate solution (Nano-Glo Live Cell Assay System, Promega) was added and measured. Ethanol (EtOH) brought in, which is used as a solvent for VDR ligand, was at a final concentration of 1%. Microplate reader Infinite 200 Pro (TECAN) was used as an instrument for measuring light emission.
After plating double molecular type N29+N31 to 96 well plate, 0-50 nM of 25(OH)D3 was added and incubated for 10 minutes at room temperature.
After plating double molecular type N29+N31 to 96 well plate, 0-10 nM of 25(OH)D3 was added and incubated for 10 minutes at room temperature.
After plating double molecular type N29+N31 to 96 well plate, 0-10000 nM calcitroic acid was added and incubated for 10 minutes at room temperature.

concentration reaching maximal light emission [1] | Detection limit ([2]; 0-10 nM 25(OH)D3, 10 minutes after light emission substrate solution, in vitro) | concentration reaching maximal increase of light emission ([2]; 0-50 nM 25(OH)D3, in vitro) | relative change of light emission ([2]; nanoluciferase biosensor protein, 10 min, 1 pM) | concentration required for increasing light emission ([2]; 0-10000 nM calcitroic acid, 10 minutes after light emission substrate solution, in vitro) | VDR affinity relative to 1α,25(OH)2D3 ([2]; stated with the N29+N31 biosensor evaluation) | Compound
1000 nM | 1 pM | around 50 nM | about 1.5 fold |  |  | C=C1CC[C@H](O)C/C1=C/C=C1\CCC[C@]2(C)[C@@H]([C@H](C)CCCC(C)(C)O)CC[C@@H]12 [25(OH)D3, 25 hydroxyvitamin D3]
 |  |  |  | ≥ 10 nM | 1/1000 | C=C1/C(=C\C=C2/CCC[C@]3(C)[C@@H]([C@H](C)CC(=O)O)CC[C@@H]23)C[C@@H](O)C[C@@H]1O [calcitroic acid]
